Data taken from patent US6878253B2, “Chiral separation of benzoporphyrin derivative mono-and di-acids by laser-induced fluorescence capillary electrophoresis” (The University of British Columbia, priority 1998, dated 2005).

Columns and labels:
[1] = Extinction coefficient determination in borate/cholate buffer; type: physicochemical; details: 430 nm; 300 mM borate, 10% acetonitrile, 25 mM sodium cholate, pH 9.2
Excerpt: The compounds have the same chromophore and identical absorption spectra (FIG. 3a) with a characteristic major broad peak in the Soret region (420 nm) and several other peaks at longer wavelengths. The most interesting long wavelength peak, in terms of applications in PDT, is the peak at 688 nm (in organic solvents). […] An emission spectrum is also shown in FIG. 3b with a characteristic emission at about 692 nm, near red (Q-band), with a Stokes shift of ˜4 nm for fluorescence. […] As such, there is no gain in photo absorption by use of any particular BPD enantiomer.

[2] = Decomposition (hydrolysis) in electrophoresis buffers; type: physicochemical; details: in one hour at pH 9.2
Procedure: Separation by CE is also affected by the buffering system used. Buffer type, concentration, ionic strength, and pH are all parameters to consider, and a variety of buffers may be used. Buffer solutions of pH 11.04, 100 mM 3-(cyclohexylamino)-1-propanesulfonic acid (CAPS); pH 6.76, 30 mM ammonium acetate; pH 2.76, 50 mM citric acid; and pH 9.2, 100 mM borate were tested as electrolytes. […] This was followed by either separation shut down or excess spiking and signal noise. In citric acid buffer the BPD enantiomers were protonated at the propionic side chain, defeating separation based on the deprotonated state. Since the effective charge(s) are the same for BPD-DA and BPD-MA, the electrophoretic mobility difference is normally very small. Also, at […], the EOF was very small and this caused the migration time to become overly long. The result was very poor signal separation due to extensive diffusion.
With borate buffer at about pH 9.2, however, the BPD-DA and BPD-MA enantiomers were completely separated. This, in combination with the ability of borate to form a very stable buffer solution with high buffering capacity and its ability to be used in very high concentrations, made it a preferred choice for use in the instant separation methods. Borate has also been used in other separation systems (Consden et al. (1952); Boeseken (1949); and Landers et al. (1992)). […]

skin = details: versus Photofrin (Richter et al. (1987)); cited from earlier work

Row | Extinction coefficient [1] | decomposition [2] | Compound | skin phototoxicity (skin)
1 | 75,200 M^−1 cm^−1 |  | C=Cc1c(C)c2cc3nc(cc4[nH]c(cc5nc(cc1[nH]2)C(C)=C5CCC(=O)O)c(CCC(=O)O)c4C)[C@@]1(C)C3=CC=C(C(=O)OC)[C@H]1C(=O)OC [BPD-DA, benzoporphyrin derivative diacid] | 
2 | 61,000 M^−1 cm^−1 | less than 1% | benzoporphyrin derivative monoacid ring A [BPD-MA] | lower skin phototoxicity than Photofrin
